Results as given in US20100330070A1, “Methods Of Making An Antibody And Compositions Thereof” (priority 2009, published 2010).

Assays:
LL-37 [1] = assay: LL-37 expression by OBA9 cells with Sepharose-coupled benzoic acid isomers; assay type: cell-based, human; settings: isomer coupled to NHS-activated Sepharose gel with EDC
From the text: In order to investigate the structure-function relationship underlying EGCG-mediated induction of LL-37 from human gingival epithelial cell line OBA9, different isomers of benzoic acids are examined for their effects on the LL-37 expression by OBA9 cells. Each isomer of benzoic acids is coupled to NHS-activated Sepharose gel (Pierce) using a cross-linker, 1-Ethyl-3-[3-dimethylaminopropyl]carbodiimide (EDC, Pierce). The isomers of benzoic acids include 1) 2,6-di-hydroxy benzoic acid, 2) 2,3,4-tri-hydroxy benzoic acids, 3) 3,4,5-tri-hydroxy benzoic acids, and 4) 2,4,6-tri-hydroxy benzoic acids.

LL-37 mRNA [2] = assay: LL-37 mRNA expression in human gingival epithelial cell line OBA9; assay type: cell-based; settings: OBA9 cells, 4-hour exposure, 0.1, 1.0 and 10 ug/ml
Experimental: (§1) Both LL-37 and hBD2 mRNA expression in OBA9 cells are induced after a 4-hour exposure to green tea polyphenol extract, Teaflan 90S (EGCG 50%, ECG 13%), and purified EGCG (95% pure, SIGMA) at concentrations of 0.1, 1.0 and 10 ug/ml. EGCG increases the production of LL-37 and hBD2 at the mRNA level in the human gingival epithelial cell line OBA9 (FIG. 1) as well as the human lung carcinoma cell line A549.

hBD2 mRNA [3] = assay: hBD2 mRNA expression in human gingival epithelial cell line OBA9; assay type: cell-based; settings: OBA9 cells, 4-hour exposure, 0.1, 1.0 and 10 ug/ml
Experimental: as §1

LL-37 mRNA [4] = assay: LL-37 mRNA level in human lung carcinoma cell line A549; assay type: cell-based; settings: A549 cells
Experimental: as §1

hBD2 mRNA [5] = assay: hBD2 mRNA level in human lung carcinoma cell line A549; assay type: cell-based; settings: A549 cells
Experimental: as §1

[6] = test system: Actinobacillus actinomycetemcomitans Y4; assay: Bactericidal effect of culture supernatant of treated OBA9 cells; assay type: cell-based; settings: supernatant of OBA9 treated at 20 ug/ml; compared with non-treated, catechin- and 2,4-dihydroxy benzoic acid-treated supernatant
Experimental: The culture supernatant isolate from OBA9 is treated with 1) EGCG, 2) catechin, 3) 2,4-dihydroxy benzoic acid, and 4) 3,4,5-tri-hydroxy benzoic acid (20 ug/ml, respectively) and examined for their bactericidal effects on Actinobacillus actinomycetemcomitans Y4 (Aa Y4).

LL-37 mRNA [7] = assay: RT-PCR of LL-37 mRNA in cheek epithelial cells after mouthwash; assay type: in vivo, human; settings: mouthwash with 40 ug/ml, after 5 minutes
From the text: (§2) Cheek epithelium is utilized for monitoring LL-37 mRNA and protein expression to determine if Trihydroxybenzoate Derivatives of the Invention can induce LL-37 in vivo. […] The isolated cheek cells are also subjected to Western blot analysis for protein expression of LL-37 by cheek epithelium using anti-LL-37 monoclonal antibody. The expression of both the proform (18 kD, also termed as hCAP18) and secreted form (4.5 kD) of LL-37 (12) in cheek epithelial cells is induced by Trihydroxybenzoate Derivatives of the Invention (e.g., EGCG (95% SIGMA), or by EGCG (90% Teavigo)).

LL-37 [8] = assay: Western blot of LL-37 protein in cheek epithelial cells; assay type: in vivo, human; settings: Western blot with anti-LL-37 monoclonal antibody
From the text: as §2

LL-37 [9] = assay: ELISA of LL-37 induction from OBA9 cells; assay type: cell-based, human; settings: for induction of LL-37 (ELISA): 20 ug/ml; for induction of LL-37 expression: in the absence of EGCG
Experimental: (§3) Using ELISA systems to detect LL-37 (Forsyth in-house) and hBD2 (Peprotech), 33 natural compounds (20 ug/ml) are examined for their ability to induce LL-37 and hBD2 from OBA9 cells. Although the sensitivity of the hBD2 ELISA is higher than that of LL-37 ELISA (10 pg/ml vs 1 ng/ml, respectively), the induction of LL-37 is more prominent than hBD2 (FIG. 2 A&B, LL-37; C&D, hBD2). […] Bactericidal effects of LL-37 and hBD2 are, in general, potent.
The Trihydroxybenzoate Derivatives of the Invention and rosemarinic acid, courmarin, catechin gallate, epicatechin gallate, epigallocatechin, and tannic acid are tested to induce LL-37 from OBA9 cells in the absence of EGCG.

hBD2 = assay: ELISA of hBD2 induction from OBA9 cells; assay type: cell-based, human; settings: 20 ug/ml
Experimental: as §3

Compound: O=C(O)c1ccc(O)c(O)c1O [2,3,4-tri-hydroxy benzoic acids, 2,3,4-trihydroxybenzoic acid]
- induction of LL-37 expression by OBA9 cells (LL-37 [1]): show the induction

Compound: O=C(O)c1c(O)cc(O)cc1O [2,4,6-tri-hydroxy benzoic acids]
- induction of LL-37 expression by OBA9 cells (LL-37 [1]): not

Compound: O=C(O)c1c(O)cccc1O [2,6-di-hydroxy benzoic acids, 2,6-di-hydroxy benzoic acid]
- induction of LL-37 expression by OBA9 cells (LL-37 [1]): not

Compound: O=C(O[C@@H]1Cc2c(O)cc(O)cc2O[C@@H]1c1cc(O)c(O)c(O)c1)c1cc(O)c(O)c(O)c1 [EGCG]
- LL-37 mRNA expression (LL-37 mRNA [2]): induced
- hBD2 mRNA expression (hBD2 mRNA [3]): induced
- production of LL-37 at the mRNA level (LL-37 mRNA [4]): increases
- production of hBD2 at the mRNA level (hBD2 mRNA [5]): increases
- bactericidal effects of culture supernatant on Aa Y4 [6]: more bactericidal effects than control
- LL-37 mRNA expression by cheek epithelial cells (LL-37 mRNA [7]): up-regulated
- expression of proform (18 kD) and secreted form (4.5 kD) of LL-37 in cheek epithelial cells (LL-37 [8]): induced

Compound: CCCCCCCCCCCCCC(=O)O[C@@H]1[C@@H](C)[C@@]2(O)[C@@H](C=C(CO)C[C@]3(O)C(=O)C(C)=C[C@@H]23)[C@@H]2C(C)(C)[C@]12OC(C)=O [PMA]
- induction of LL-37 (ELISA) (LL-37 [9]): induced
- induction of hBD2 (ELISA) (hBD2): minimal induction activities

Compound: O=C(/C=C/c1ccc(O)c(O)c1)O[C@H](Cc1ccc(O)c(O)c1)C(=O)O [Rosemarinic acid]
- induction of LL-37 expression (LL-37 [9]): little or no induction

Compound: O=c1ccc2ccccc2o1 [courmarin]
- induction of LL-37 expression (LL-37 [9]): little or no induction

Compound: O=C(O)c1cc(O)c(O)c(O)c1 [gallic acid, 3,4,5-trihydroxybenzoic acid]
- induction of LL-37 expression (LL-37 [9]): more potent than 3,4,-dihydroxy benzoate
- bactericidal effects of culture supernatant on Aa Y4 [6]: more bactericidal effects than control
- induction of LL-37 expression by OBA9 cells (LL-37 [1]): show the induction

Compound: Poly IC
- induction of LL-37 (ELISA) (LL-37 [9]): induced
- induction of hBD2 (ELISA) (hBD2): minimal induction activities
